For test [1], the target named is T1, Tubulin (Sus scrofa) (UniProt P02554+P02550). Description: Displacement of [3H]colchicine from tubulin in pig brain at 10 uM after 16 hrs by scintillation proximity assay.
A further test has as its system HCT-116. The test can be described thus: Antiproliferative activity against human HCT116 cells assessed as cell viability after 72 hrs by CellTiter96 assay. Type of test: functional, cell-based. The following applies: HCT-116, 72 h.
The test system of test [2] is COLO 205. The test can be described thus: Antiproliferative activity against human COLO205 cells assessed as cell viability after 72 hrs by CellTiter96 assay. Type of test: functional, cell-based. The following applies: COLO 205, 72 h.
Test [3] relates to MCF7. The test can be described thus: Antiproliferative activity against human MCF7 cells assessed as cell viability after 72 hrs by CellTiter96 assay. The following applies: MCF7, 72 h. Type of test: functional, cell-based.
The test system of another test is A-375. The test can be described thus: Antiproliferative activity against human A375 cells assessed as cell viability after 72 hrs by CellTiter96 assay. The following applies: A-375, 72 h. Type of test: functional, cell-based.
Test [4] deals with NCI-H460. Description: Antiproliferative activity against human NCI-H460 cells assessed as cell viability after 72 hrs by CellTiter96 assay. Type of test: functional, cell-based. The following applies: NCI-H460, 72 h.
For a further test, the system named is KB. Description: Antiproliferative activity against human KB cells assessed as cell viability after 72 hrs by CellTiter96 assay. Type of test: functional, cell-based.
In test [5] the target is T1, Tubulin (Sus scrofa). Description: Inhibition of pig neuronal tubulin polymerization at 10 uM by fluorescence analysis. Type of test: protein assay.
Test [6] concerns COLO 205. The test can be described thus: Ratio of ottelione A IC50 to compound IC50 for human COLO205 cells after 72 hrs by CellTiter96 assay. Type of test: functional.
For test [7], the system named is NCI-H460. Description: Ratio of ottelione A IC50 to compound IC50 for human NCI-H460 cells after 72 hrs by CellTiter96 assay. Type of test: functional.
Test [8] deals with MCF7. The test can be described thus: Ratio of ottelione A IC50 to compound IC50 for human MCF7 cells after 72 hrs by CellTiter96 assay. Type of test: functional.

The source made the active and inactive calls. The rule behind the calls is not given here.

T1 sequence (P02550 whole entry, looked up): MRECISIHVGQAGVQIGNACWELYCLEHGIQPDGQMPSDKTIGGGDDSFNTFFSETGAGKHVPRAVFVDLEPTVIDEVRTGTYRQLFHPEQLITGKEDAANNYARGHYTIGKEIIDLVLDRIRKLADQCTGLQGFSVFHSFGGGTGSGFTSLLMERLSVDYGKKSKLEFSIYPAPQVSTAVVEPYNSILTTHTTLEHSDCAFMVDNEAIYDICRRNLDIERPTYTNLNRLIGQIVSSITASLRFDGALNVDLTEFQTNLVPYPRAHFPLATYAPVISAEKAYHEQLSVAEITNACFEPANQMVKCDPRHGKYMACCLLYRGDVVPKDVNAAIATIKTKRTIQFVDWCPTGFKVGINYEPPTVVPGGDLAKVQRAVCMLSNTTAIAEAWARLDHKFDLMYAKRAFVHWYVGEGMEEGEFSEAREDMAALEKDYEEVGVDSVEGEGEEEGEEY
T1 sequence (P02554 whole entry, looked up): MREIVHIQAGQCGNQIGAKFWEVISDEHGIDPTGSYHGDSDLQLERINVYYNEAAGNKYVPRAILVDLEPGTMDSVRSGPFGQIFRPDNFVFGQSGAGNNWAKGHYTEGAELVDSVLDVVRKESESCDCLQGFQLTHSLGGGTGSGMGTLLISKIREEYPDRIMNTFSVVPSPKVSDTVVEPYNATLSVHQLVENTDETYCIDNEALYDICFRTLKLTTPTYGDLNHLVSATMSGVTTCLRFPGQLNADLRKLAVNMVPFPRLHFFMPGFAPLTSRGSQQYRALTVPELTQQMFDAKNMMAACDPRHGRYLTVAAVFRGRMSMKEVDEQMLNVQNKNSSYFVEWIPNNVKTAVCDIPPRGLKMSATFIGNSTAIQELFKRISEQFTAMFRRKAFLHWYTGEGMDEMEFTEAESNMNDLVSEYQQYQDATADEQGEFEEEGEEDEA

On Tubulin (Sus scrofa) [1], `C=C1C=CC(=O)[C@@H]2[C@H](Cc3ccc(O)c(F)c3)CC[C@H]12` (racemic) had an inhibition of 37.3%. Moreover, the IC50 with HCT-116 stood at 126 nM; with COLO 205 [2], 3000 nM; in the test with MCF7 [3], 147 nM; in the test with A-375 it was 98.4 nM; in the test on NCI-H460 [4], 229 nM; with KB it was 156 nM.
Turning to `C=C1C=CC(=O)[C@@H]2[C@H](Cc3ccc(O)cc3)CC[C@H]12` (racemic), at Tubulin (Sus scrofa) [1], the inhibition is 71.6%. The IC50 in the test with HCT-116 was 38.5 nM; in the test with COLO 205 [2] it was 218 nM; in the test with MCF7 [3], 33.8 nM; with A-375, 30.8 nM; in the test on NCI-H460 [4] it was 77.6 nM; in the test with KB, 68.8 nM.
At Tubulin (Sus scrofa) [1], `CC=C1C=CC(=O)[C@@H]2[C@H](Cc3ccc(OC)c(O)c3)CC[C@H]12` (racemic) displayed an inhibition of 96.1%. The IC50 worked out at 14 nM in the test with HCT-116; 739 nM in the test on COLO 205 [2]; 26.3 nM with MCF7 [3]; 9.2 nM in the test with A-375; 24.6 nM in the test on NCI-H460 [4]; 22.6 nM in the test with KB.
`C=C1C=CC(=O)[C@@H]2[C@H](Cc3ccccc3)CC[C@H]12` (racemic) came in with an inhibition at Tubulin (Sus scrofa) [1] of 43.2%. Moreover, the IC50 amounted to 257 nM in the test with HCT-116; 547 nM in the test with COLO 205 [2]; 260 nM in the test with MCF7 [3]; 237 nM in the test with A-375; 678 nM in the test with NCI-H460 [4]; 591 nM in the test with KB.
For the compound `C=C1C=CC(=O)[C@@H]2[C@H](Cc3ccc(OCOC)c(F)c3)CC[C@H]12` (racemic), at Tubulin (Sus scrofa) [1], the inhibition worked out at 68.9%. Moreover, the IC50 in the test with HCT-116 came to 77.4 nM; in the test on COLO 205 [2], 75.7 nM; in the test with MCF7 [3] it was 77.2 nM; with A-375, 40 nM; in the test on NCI-H460 [4], 106 nM; with KB, 76.6 nM.
Regarding `C=C1C=CC(=O)[C@@H]2[C@H](Cc3cc(OC)c(OC)c(OC)c3)CC[C@H]12` (racemic), the inhibition at Tubulin (Sus scrofa) [1] was determined as 8.93%. The IC50 in the test with HCT-116, in the test on COLO 205 [2], in the test with MCF7 [3], with A-375, in the test on NCI-H460 [4] and with KB was greater than 1000 nM in each case.
Turning to `C=C1C=CC(=O)[C@@H]2[C@H](Cc3ccc(F)c(F)c3)CC[C@H]12` (racemic), on Tubulin (Sus scrofa) [1], the inhibition came out at 61.7%. The IC50 was determined as 235 nM with HCT-116; 428 nM in the test with COLO 205 [2]; 233 nM with MCF7 [3]; 222 nM in the test on A-375; 511 nM in the test on NCI-H460 [4]; 478 nM with KB.
Compound `COc1ccc(C[C@@H]2CC[C@@H]3CC=CC(=O)[C@@H]32)cc1O` (racemic) gave an inhibition on Tubulin (Sus scrofa) [1] of 39.2%. The IC50 is greater than 1000 nM in the test on HCT-116; greater than 1000 nM in the test with COLO 205 [2]; greater than 1000 nM in the test with MCF7 [3]; 914 nM in the test on A-375; greater than 1000 nM with NCI-H460 [4]; greater than 1000 nM in the test on KB.
`C=C[C@@H]1C[C@@H](Cc2ccc(OC)c(O)c2)[C@H]2C(=O)C=CC(=C)[C@H]21` (racemic): the inhibition on Tubulin (Sus scrofa) [1] worked out at 98.3%. Also, the 50% inhibitory concentration (IC50) in the test with HCT-116 was 0.74 nM; in the test on COLO 205 [2], 92.8 nM; in the test on MCF7 [3] it was 1.17 nM; in the test on A-375, 0.4 nM; in the test on NCI-H460 [4], 14.5 nM; with KB it was 1.59 nM. For the same compound, the inhibition entry on Tubulin (Sus scrofa) [5] is “Active”.
In turn, `C=C1C=CC(=O)[C@@H]2[C@H](Cc3ccc(OC)c(F)c3)CC[C@H]12` (racemic) yielded an inhibition at Tubulin (Sus scrofa) [1] of 97.1%. The IC50 was found to be 1.11 nM in the test on HCT-116; 2.45 nM in the test on COLO 205 [2]; 0.13 nM in the test with MCF7 [3]; 1.68 nM in the test on A-375; 2.62 nM in the test on NCI-H460 [4]; 2.77 nM with KB. For the same compound, the “Ratio IC50” value in the test on COLO 205 [6], with NCI-H460 [7] and in the test with MCF7 [8] was 6 each time. Also, the inhibition result at Tubulin (Sus scrofa) [5] was “Active”.
For `C=C1C=CC(=O)[C@@H]2[C@H](Cc3ccc(OCOC)cc3)CC[C@H]12` (racemic), at Tubulin (Sus scrofa) [1], the inhibition stood at 69.3%. Moreover, the IC50 in the test on HCT-116 came to 129 nM; in the test on COLO 205 [2], 219 nM; in the test with MCF7 [3], 63.6 nM; in the test on A-375, 77.4 nM; in the test with NCI-H460 [4] it was 226 nM; in the test with KB it was 208 nM.
On Tubulin (Sus scrofa) [1], `C=C1C=CC(=O)[C@@H]2[C@H](Cc3ccc(OC)c(O)c3)CC[C@H]12` (racemic) displayed an inhibition of 95.8%. The IC50 with HCT-116 turned out to be 3.01 nM; in the test on COLO 205 [2], 244 nM; in the test on MCF7 [3], 3.73 nM; with A-375, 1.07 nM; in the test with NCI-H460 [4], 16 nM; with KB, 4.94 nM. Further, the inhibition result at Tubulin (Sus scrofa) [5] is “Active”.

The values are drawn from ChEMBL document CHEMBL2203143, “Synthesis and antiproliferative activities of ottelione a analogues” (ACS Med Chem Lett, 2012).
